The test system of the assay is p53 in MCF-7 breast cancer cells. In words: Down modulation of endogenous p53 in MCF-7 cells by dox-inducible siRNA lentivectors (Western blot). It counts as cell-based. The settings on record: dually transduced MCF-7 cells, 5 days in dox, FIG. 7B. The procedure:
To analyze the regulation of GFP a Hela cell clone carrying a single copy of the WPXLGFP provirus (Hela-GFP) was used. For transduction, Hela-GFP, MCF-7 or Hela cells were plated on 24-well plate (20×10^4 cells/well) and after 16 hrs medium containing recombinant lentivectors was added. Following 16 hrs of incubation the cells were washed, split and doxycycline was added to half of the transduced cells at a final concentration of 5 μg/ml. Five days later the cells were harvested and analyzed by FACS.
Cell extracts were prepared in RIPA lysis buffer (25 mM Tris pH 7.5, 1% Triton X-100, 0.5% sodium deoxycholate, 5 mM EDTA, 150 mM NaCl) containing a cocktail of protease inhibitors (Sigma). The protein samples (10 μg) were separated on 4-20% gradient PAGE-SDS gel, electroblotted to polyvinylidene fluoride membranes (Perkin Elmer) and exposed to antibodies against p53 (Santa Cruz Biotechnology), Lamin A/C (Santa Cruz Biotechnology), GFP (Clontech) and actin (Calbiochem). Antibodies conjugated with horseradish peroxidase (Amersham) and enhanced chemiluminescence (ECL; Amersham) was used for detection.
(In general: Immunoblotting shows a protein as a band on a membrane.)

Turning to `C[C@H]1c2cccc(O)c2C(=O)C2=C(O)[C@]3(O)C(=O)C(C(N)=O)=C(O)[C@@H](N(C)C)[C@@H]3[C@@H](O)[C@@H]21` [doxycycline], the “dox concentration at which full-blown p53 suppression was achieved” value is 0.25 µg/mL and the “dox concentration at which p53 downregulation was already apparent” value was 0.004 µg/mL.

The record behind these values is patent US20130096370A1, “COMPOSITIONS AND SYSTEMS FOR THE REGULATION OF GENES” (priority 2002, published 2013).
